Assay results as given in patent publication US4464385A, “Treatment of diabetic complications with hydantoins” (Alcon Laboratories, Inc., priority 1982, dated 1984).

System: cataracts in rats
Experiment: Prevention or retardation of cataracts in galactose-fed rats
Type: in vivo, rat
Conditions: 30% galactose diet, A,C,E 0.0025%, B,D 0.01%
Procedure: The compounds to be tested were:
Test compound/diet mixtures were formulated as follows: […]
Similarly, the 0.01% level was designed to provide a drug concentration of 20 mg per kilogram per day.
All animals were fed the Purina Laboratory Chow and water, ad libitum for a two day acclimatization period. The indicated test compound/diet mixture then was introduced to all animals on Study Day 1 and the animals were maintained on this diet throughout thirty days of the study.
Sufficient amounts of test compound/diet mixture were maintained in the food hoppers to allow the animals to eat ad libitum. All aliquots of test compound/diet mixture added to the food hoopers were weighed and the weights, as well as day of addition, recorded.
Twelve animals were assigned to each treatment with each compound at the indicated percentage by total weight of feed. All eyes were examined with a handheld ophthalmoscope and/or penlight.

CSc1ccc2c(c1)C1(CCO2)NC(=O)NC1=O (stereo not drawn) [A]
% of Total Eyes, + (vacuole) (Study Day 2): 0% | % of Total Eyes, - (Normal) (Study Day 2): 100.0% | % of Total Eyes, N (nuclear cataract) (Study Day 2): 0% | % of Total Eyes, S (snowflake) (Study Day 2): 0% | Number of Eyes Observed, + (vacuole) (Study Day 2): 0 eyes | Number of Eyes Observed, - (Normal) (Study Day 2): 24 eyes | Number of Eyes Observed, N (nuclear cataract) (Study Day 2): 0 eyes | Number of Eyes Observed, S (snowflake) (Study Day 2): 0 eyes | Number of Eyes Observed, ± (Study Day 2): 0 eyes | % of Total Eyes, + (vacuole) (Study Day 3): 0% | % of Total Eyes, - (Normal) (Study Day 3): 100.0% | % of Total Eyes, N (nuclear cataract) (Study Day 3): 0% | % of Total Eyes, S (snowflake) (Study Day 3): 0% | Number of Eyes Observed, + (vacuole) (Study Day 3): 0 eyes | Number of Eyes Observed, - (Normal) (Study Day 3): 24 eyes | Number of Eyes Observed, N (nuclear cataract) (Study Day 3): 0 eyes | Number of Eyes Observed, S (snowflake) (Study Day 3): 0 eyes | Number of Eyes Observed, ± (Study Day 3): 0 eyes | % of Total Eyes, + (vacuole) (Study Day 4): 0% | % of Total Eyes, - (Normal) (Study Day 4): 79.2% | % of Total Eyes, N (nuclear cataract) (Study Day 4): 0% | % of Total Eyes, S (snowflake) (Study Day 4): 0% | Number of Eyes Observed, + (vacuole) (Study Day 4): 0 eyes | Number of Eyes Observed, - (Normal) (Study Day 4): 19 eyes | Number of Eyes Observed, N (nuclear cataract) (Study Day 4): 0 eyes | Number of Eyes Observed, S (snowflake) (Study Day 4): 0 eyes | Number of Eyes Observed, ± (Study Day 4): 5 eyes | % of Total Eyes, + (vacuole) (Study Day 5): 16.7% | % of Total Eyes, - (Normal) (Study Day 5): 8.3% | % of Total Eyes, N (nuclear cataract) (Study Day 5): 0% | % of Total Eyes, S (snowflake) (Study Day 5): 0% | Number of Eyes Observed, + (vacuole) (Study Day 5): 4 eyes | Number of Eyes Observed, - (Normal) (Study Day 5): 2 eyes | Number of Eyes Observed, N (nuclear cataract) (Study Day 5): 0 eyes | Number of Eyes Observed, S (snowflake) (Study Day 5): 0 eyes | Number of Eyes Observed, ± (Study Day 5): 18 eyes | % of Total Eyes, + (vacuole) (Study Day 6): 58.4% | % of Total Eyes, - (Normal) (Study Day 6): 8.3% | % of Total Eyes, N (nuclear cataract) (Study Day 6): 0% | % of Total Eyes, S (snowflake) (Study Day 6): 0% | Number of Eyes Observed, + (vacuole) (Study Day 6): 14 eyes | Number of Eyes Observed, - (Normal) (Study Day 6): 2 eyes | Number of Eyes Observed, N (nuclear cataract) (Study Day 6): 0 eyes | Number of Eyes Observed, S (snowflake) (Study Day 6): 0 eyes | Number of Eyes Observed, ± (Study Day 6): 8 eyes | % of Total Eyes, + (vacuole) (Study Day 8): 66.7% | % of Total Eyes, - (Normal) (Study Day 8): 8.3% | % of Total Eyes, N (nuclear cataract) (Study Day 8): 0% | % of Total Eyes, S (snowflake) (Study Day 8): 0% | Number of Eyes Observed, + (vacuole) (Study Day 8): 16 eyes | Number of Eyes Observed, - (Normal) (Study Day 8): 2 eyes | Number of Eyes Observed, N (nuclear cataract) (Study Day 8): 0 eyes | Number of Eyes Observed, S (snowflake) (Study Day 8): 0 eyes | Number of Eyes Observed, ± (Study Day 8): 6 eyes | % of Total Eyes, + (vacuole) (Study Day 10): 62.5% | % of Total Eyes, - (Normal) (Study Day 10): 8.3% | % of Total Eyes, N (nuclear cataract) (Study Day 10): 0% | % of Total Eyes, S (snowflake) (Study Day 10): 12.5% | Number of Eyes Observed, + (vacuole) (Study Day 10): 15 eyes | Number of Eyes Observed, - (Normal) (Study Day 10): 2 eyes | Number of Eyes Observed, N (nuclear cataract) (Study Day 10): 0 eyes | Number of Eyes Observed, S (snowflake) (Study Day 10): 3 eyes | Number of Eyes Observed, ± (Study Day 10): 4 eyes | % of Total Eyes, + (vacuole) (Study Day 12): 70.8% | % of Total Eyes, - (Normal) (Study Day 12): 0% | % of Total Eyes, N (nuclear cataract) (Study Day 12): 0% | % of Total Eyes, S (snowflake) (Study Day 12): 16.7% | Number of Eyes Observed, + (vacuole) (Study Day 12): 17 eyes | Number of Eyes Observed, - (Normal) (Study Day 12): 0 eyes | Number of Eyes Observed, N (nuclear cataract) (Study Day 12): 0 eyes | Number of Eyes Observed, S (snowflake) (Study Day 12): 4 eyes | Number of Eyes Observed, ± (Study Day 12): 3 eyes | % of Total Eyes, + (vacuole) (Study Day 14): 66.7% | % of Total Eyes, - (Normal) (Study Day 14): 0% | % of Total Eyes, N (nuclear cataract) (Study Day 14): 0% | % of Total Eyes, S (snowflake) (Study Day 14): 29.2% | Number of Eyes Observed, + (vacuole) (Study Day 14): 16 eyes | Number of Eyes Observed, - (Normal) (Study Day 14): 0 eyes | Number of Eyes Observed, N (nuclear cataract) (Study Day 14): 0 eyes | Number of Eyes Observed, S (snowflake) (Study Day 14): 7 eyes | Number of Eyes Observed, ± (Study Day 14): 1 eyes | % of Total Eyes, + (vacuole) (Study Day 16): 50.0% | % of Total Eyes, - (Normal) (Study Day 16): 0% | % of Total Eyes, N (nuclear cataract) (Study Day 16): 0% | % of Total Eyes, S (snowflake) (Study Day 16): 50.0% | Number of Eyes Observed, + (vacuole) (Study Day 16): 12 eyes | Number of Eyes Observed, - (Normal) (Study Day 16): 0 eyes | Number of Eyes Observed, N (nuclear cataract) (Study Day 16): 0 eyes | Number of Eyes Observed, S (snowflake) (Study Day 16): 12 eyes | Number of Eyes Observed, ± (Study Day 16): 0 eyes | % of Total Eyes, + (vacuole) (Study Day 18): 33.3% | % of Total Eyes, - (Normal) (Study Day 18): 0% | % of Total Eyes, N (nuclear cataract) (Study Day 18): 0% | % of Total Eyes, S (snowflake) (Study Day 18): 66.7% | Number of Eyes Observed, + (vacuole) (Study Day 18): 8 eyes | Number of Eyes Observed, - (Normal) (Study Day 18): 0 eyes | Number of Eyes Observed, N (nuclear cataract) (Study Day 18): 0 eyes | Number of Eyes Observed, S (snowflake) (Study Day 18): 16 eyes | Number of Eyes Observed, ± (Study Day 18): 0 eyes | % of Total Eyes, + (vacuole) (Study Day 20): 25.0% | % of Total Eyes, - (Normal) (Study Day 20): 0% | % of Total Eyes, N (nuclear cataract) (Study Day 20): 0% | % of Total Eyes, S (snowflake) (Study Day 20): 75.0% | Number of Eyes Observed, + (vacuole) (Study Day 20): 6 eyes | Number of Eyes Observed, - (Normal) (Study Day 20): 0 eyes | Number of Eyes Observed, N (nuclear cataract) (Study Day 20): 0 eyes | Number of Eyes Observed, S (snowflake) (Study Day 20): 18 eyes | Number of Eyes Observed, ± (Study Day 20): 0 eyes | % of Total Eyes, + (vacuole) (Study Day 22): 25.0% | % of Total Eyes, - (Normal) (Study Day 22): 0% | % of Total Eyes, N (nuclear cataract) (Study Day 22): 0% | % of Total Eyes, S (snowflake) (Study Day 22): 75.0% | Number of Eyes Observed, + (vacuole) (Study Day 22): 6 eyes | Number of Eyes Observed, - (Normal) (Study Day 22): 0 eyes | Number of Eyes Observed, N (nuclear cataract) (Study Day 22): 0 eyes | Number of Eyes Observed, S (snowflake) (Study Day 22): 18 eyes | Number of Eyes Observed, ± (Study Day 22): 0 eyes | % of Total Eyes, + (vacuole) (Study Day 24): 16.7% | % of Total Eyes, - (Normal) (Study Day 24): 0% | % of Total Eyes, N (nuclear cataract) (Study Day 24): 0% | % of Total Eyes, S (snowflake) (Study Day 24): 83.3% | Number of Eyes Observed, + (vacuole) (Study Day 24): 4 eyes | Number of Eyes Observed, - (Normal) (Study Day 24): 0 eyes | Number of Eyes Observed, N (nuclear cataract) (Study Day 24): 0 eyes | Number of Eyes Observed, S (snowflake) (Study Day 24): 20 eyes | Number of Eyes Observed, ± (Study Day 24): 0 eyes | % of Total Eyes, + (vacuole) (Study Day 26): 8.3% | % of Total Eyes, - (Normal) (Study Day 26): 0% | % of Total Eyes, N (nuclear cataract) (Study Day 26): 0% | % of Total Eyes, S (snowflake) (Study Day 26): 91.7% | Number of Eyes Observed, + (vacuole) (Study Day 26): 2 eyes | Number of Eyes Observed, - (Normal) (Study Day 26): 0 eyes | Number of Eyes Observed, N (nuclear cataract) (Study Day 26): 0 eyes | Number of Eyes Observed, S (snowflake) (Study Day 26): 22 eyes | Number of Eyes Observed, ± (Study Day 26): 0 eyes | % of Total Eyes, + (vacuole) (Study Day 28): 8.3% | % of Total Eyes, - (Normal) (Study Day 28): 0% | % of Total Eyes, N (nuclear cataract) (Study Day 28): 8.3% | % of Total Eyes, S (snowflake) (Study Day 28): 83.3% | Number of Eyes Observed, + (vacuole) (Study Day 28): 2 eyes | Number of Eyes Observed, - (Normal) (Study Day 28): 0 eyes | Number of Eyes Observed, N (nuclear cataract) (Study Day 28): 2 eyes | Number of Eyes Observed, S (snowflake) (Study Day 28): 20 eyes | Number of Eyes Observed, ± (Study Day 28): 0 eyes | % of Total Eyes, + (vacuole) (Study Day 30): 4.2% | % of Total Eyes, - (Normal) (Study Day 30): 0% | % of Total Eyes, N (nuclear cataract) (Study Day 30): 12.5% | % of Total Eyes, S (snowflake) (Study Day 30): 83.3% | Number of Eyes Observed, + (vacuole) (Study Day 30): 1 eyes | Number of Eyes Observed, - (Normal) (Study Day 30): 0 eyes | Number of Eyes Observed, N (nuclear cataract) (Study Day 30): 3 eyes | Number of Eyes Observed, S (snowflake) (Study Day 30): 20 eyes | Number of Eyes Observed, ± (Study Day 30): 0 eyes
